# Key:
# Format in all cases: biochemical
# Cathepsin B = Cathepsin B (Rattus norvegicus, UniProt P00787); assay: In vitro assay of inhibition of Cathepsin B (N-CBZ-Phe-Arg-AMC substrate); settings: r rat CathB, pH5.1, 10 min preincubation at room temperature; read-out: IC50, Cathepsin B
# Method: After 10 min of incubation at room temperature a 20 μl of 5 mM substrate (N-CBZ-Phe-Arg-AMC, dissolved in DMSO) was added to initiate reaction. Reading is followed up for 10 min at the Fluoroscan reader (excitation at 380 nm, emission at 460 nm).
# Cathepsin L = Cathepsin L (Rattus norvegicus, UniProt P07154); assay: Assay of inhibition of Cathepsin L (N-CBZ-Phe-Arg-AMC substrate); settings: r rat CathL, pH5.0, 10 min preincubation at room temperature; read-out: IC50, Cathepsin L
# Cathepsin L, sequence (P07154 114-334): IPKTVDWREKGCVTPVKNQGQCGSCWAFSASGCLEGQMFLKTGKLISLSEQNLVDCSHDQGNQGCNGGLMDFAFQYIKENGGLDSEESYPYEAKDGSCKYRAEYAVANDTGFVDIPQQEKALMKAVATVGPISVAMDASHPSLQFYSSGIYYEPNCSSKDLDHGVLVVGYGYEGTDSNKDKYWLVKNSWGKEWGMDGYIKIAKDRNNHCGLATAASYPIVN
# Method: After 10 min of incubation at room temperature a 20 μl of 1 mM substrate (N-CBZ-Phe-Arg-AMC, dissolved in DMSO) was added to initiate reaction. Reading is followed up for 10 min at the Fluoroscan reader (excitation at 380 nm, emission at 460 nm).
# papain = target: T1, papain (Carica papaya, UniProt P00784); assay: Assay of inhibition of papain (N-CBZ-Pro-Phe-Arg-pNA substrate)
# T1 sequence (P00784 134-345): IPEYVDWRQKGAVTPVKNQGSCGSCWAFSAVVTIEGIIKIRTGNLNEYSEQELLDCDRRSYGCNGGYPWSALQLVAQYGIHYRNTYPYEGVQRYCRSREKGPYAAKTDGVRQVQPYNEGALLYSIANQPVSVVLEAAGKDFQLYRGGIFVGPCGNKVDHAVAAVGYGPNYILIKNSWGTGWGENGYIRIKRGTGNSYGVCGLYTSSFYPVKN
# Method: To a 170 μl of enzyme-buffer mixture (enzyme:papain, diluted to give 30 mOD/min, buffer: 0.2M potassium phosphate, 1.0 mM EDTA, 5 mML Cysteine, pH6.5) a 10 μl of inhibitor (dissolved in DMSO) was added. After 10 min of incubation at room temperature, 20 μl of 10 mM substrate (N-CBZ-Pro-Phe-Arg-pNA, dissolved in DMSO) was added to initiate reaction. Reading is followed up for 3 min at the Thermomax plate reader(absorbance at 405 nm).
# A plot of percentage of inhibition vs inhibitor concentration is obtained, and IC50 is determined using a linear regression calculations (concentration of inhibitor which will give 50% inhibition).
# Cathepsin B, sequence (P00787 80-339): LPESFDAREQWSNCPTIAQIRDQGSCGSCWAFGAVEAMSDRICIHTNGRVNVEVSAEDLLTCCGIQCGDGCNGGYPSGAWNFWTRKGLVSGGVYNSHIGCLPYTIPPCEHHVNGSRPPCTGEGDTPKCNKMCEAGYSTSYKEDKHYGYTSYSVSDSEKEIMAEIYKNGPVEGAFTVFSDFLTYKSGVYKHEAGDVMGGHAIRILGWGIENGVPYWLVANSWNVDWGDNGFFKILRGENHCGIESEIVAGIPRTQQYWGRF
smiles,measurement,setting,value
"CC(=O)O[C@@H]1NC(=O)[C@H]1NC(=O)[C@H](Cc1ccccc1)NC(=O)c1cc2ccccc2o1 [Example 16, (3S,4S)-3{N-(benzofuran-2-yl-carbonyl)-L-phenylalanyl}-amino-4-acetoxy-azetidin-2-one]",IC50,Cathepsin B,5680 nM
same,IC50,Cathepsin L,35 nM
"CON1C[C@@H](NC(=O)[C@H](Cc2ccccc2)NC(=O)OCc2ccccc2)C1=O [Example 3, (3R)-3-(N-benzyloxycarbonyl-L-phenylalanyl)-amino-1-methoxy-azetidin-2-one]",IC50,Cathepsin B,52000 nM
same,IC50,papain,> 63000 nM
"O=C(CCc1ccccc1)N[C@@H](Cc1ccccc1)C(=O)N[C@@H]1C(=O)N[C@H]1Oc1cccc(C(=O)O)c1 [Example 28, (3S,4S)-3-{N-(3-phenylpropionoyl)-L-phenylalanyl}-amino-4-(3-carboxyphenoxy)-azetidin-2-one]",IC50,Cathepsin B,76 nM
same,IC50,Cathepsin L,228 nM
"CON1C[C@H](NC(=O)[C@H](Cc2ccccc2)NC(=O)OCc2ccccc2)C1=O [Example 1, (3S)-3-(N-benzyloxycarbonyl-L-phenylalanyl)-amino-1-methoxy-azetidin-2-one]",IC50,Cathepsin B,> 63000 nM
same,IC50,papain,> 63000 nM
"CC(=O)O[C@@H]1NC(=O)[C@H]1NC(=O)[C@H](Cc1ccccc1)NC(=O)/C=C/c1cccs1 [Example 17, (3S,4S)-3-[N-{3-(thiophen-2-yl)-trans-prop-2-enoyl}-L-phenylalanyl]-amino-4-acetoxy-azetidin-2-one]",IC50,Cathepsin B,5370 nM
same,IC50,Cathepsin L,31.5 nM
"CC(=O)O[C@@H]1NC(=O)[C@H]1NC(=O)[C@H](Cc1ccccc1)NC(=O)CCc1ccccc1 [Example 10, (3S,4S)-3-{N-(3-phenylpropionoyl)-L-phenylalanyl}-amino-4-acetoxy-azetidin-2-one]",IC50,Cathepsin B,470 nM
same,IC50,Cathepsin L,35 nM
CC(=O)O[C@@H]1NC(=O)[C@H]1NC(=O)[C@H](Cc1ccccc1)NS(=O)(=O)/C=C/c1ccccc1 [Example 11],IC50,Cathepsin B,1660 nM
same,IC50,Cathepsin L,1840 nM
"CC(=O)O[C@@H]1NC(=O)[C@H]1NC(=O)[C@H](Cc1ccccc1)NS(=O)(=O)c1ccc2ccccc2c1 [Example 19, (3S,4S)-3-{N-(naphthalen-2-yl-sulfonyl)-L-phenylalanyl}-amino-4-acetoxy-azetidin-2-one]",IC50,Cathepsin B,7220 nM
same,IC50,Cathepsin L,416 nM
"O=C(CCc1ccccc1)N[C@@H](Cc1ccccc1)C(=O)N[C@@H]1C(=O)N[C@H]1Oc1ccc(C[C@H](NC(=O)OCc2ccccc2)C(=O)OC(c2ccccc2)c2ccccc2)cc1 [Example 29A, (3S,4S)-3-{N-(3-phenylpropionoyl)-L-phenylalanyl}-amino-4-{4-(L-2-N-benzyloxycarbonylamino-2-diphenylmethoxycarbonyl-ethyl)-phenoxy}-azetidin-2-one]",IC50,Cathepsin B,590 nM
same,IC50,Cathepsin L,160 nM
"O=C(N[C@@H](Cc1ccccc1)C(=O)N[C@@H]1C(=O)N(S(=O)(=O)O)[C@H]1Sc1ccccc1)OCc1ccccc1 [Example 31, (3R,4S)-3-(N-benzyloxycarbonyl-L-phenylalanyl)-amino-4-phenylthio-azetidin-2-one-1-sulfonic acid]",IC50,Cathepsin B,8430 nM
same,IC50,Cathepsin L,67 nM
"O=C(N[C@@H](Cc1ccccc1)C(=O)N[C@@H]1C(=O)N[C@H]1Sc1ccccc1)OCc1ccccc1 [Example 20, (3R,4S)-3-(N-benzyloxycarbonyl-L-phenylalanyl)-amino-4-phenylthio-azetidin-2-one]",IC50,Cathepsin L,0.108 nM
"C[C@H]1[C@H](NC(=O)CNC(=O)[C@H](Cc2ccccc2)NC(=O)OCc2ccccc2)C(=O)N1S(=O)(=O)O [Example 6, Potassium (3S,4S)-3-(N-benzyloxycarbonyl-L-phenylalanyl-glycinyl)-amino-4-methyl-azetidin-2-one-1-sulfonate]",IC50,Cathepsin B,> 25000 nM
same,IC50,papain,> 25000 nM
"CC(=O)O[C@@H]1NC(=O)[C@H]1NC(=O)[C@H](Cc1ccccc1)NC(=O)N1CCOCC1 [Example 12, (3S,4S)-3-{N-(morpholin-yl-carbonyl)-L-phenylalaninyl}-amino-4-acetoxy-azetidin-2-one]",IC50,Cathepsin B,7400 nM
same,IC50,Cathepsin L,1580 nM
CC(=O)O[C@@H]1NC(=O)[C@H]1NC(=O)[C@H](Cc1ccccc1)NC(=O)CCN1CCOCC1 [Example 13],IC50,Cathepsin B,39200 nM
same,IC50,Cathepsin L,2310 nM
"O=C(CCc1ccccc1)N[C@@H](Cc1ccccc1)C(=O)N[C@@H]1C(=O)N[C@H]1Oc1ccccc1 [Example 26, (3S,4S)-3-{N-(3-phenylpropionoyl)-L-phenylalanyl}-amino-4-phenoxy-azetidin-2-one]",IC50,Cathepsin B,2190 nM
same,IC50,Cathepsin L,55.6 nM
"CC(=O)O[C@@H]1NC(=O)[C@H]1NC(=O)[C@H](Cc1ccccc1)NC(=O)OCc1ccccc1 [Example 7, (3S,4S)-3-(N-benzyloxycarbonyl-L-phenylalanyl)-amino-4-acetoxy-azetidin-2-one]",IC50,papain,275 nM
"O=C(CCc1ccccc1)N[C@@H](Cc1ccccc1)C(=O)N[C@@H]1C(=O)N[C@H]1Oc1ccc(C(=O)O)cc1 [Example 27B, (3S,4S)-3-{N-(3-phenylpropionoyl)-L-phenylalanyl}-amino-4-(4-carboxyphenoxy)-azetidin-2-one]",IC50,Cathepsin B,21800 nM
same,IC50,Cathepsin L,38 nM
"N[C@@H](Cc1ccccc1)C(=O)N[C@@H]1C(=O)N[C@H]1Oc1ccc(C(=O)O)cc1 [Example 30B, (3S,4S)-3-(L-phenylalanyl)-amino-4-(4-carboxyphenoxy)-azetidin-2-one]",IC50,Cathepsin B,> 68000 nM
same,IC50,Cathepsin L,5260 nM
"O=C(N[C@@H](Cc1ccccc1)C(=O)N[C@@H]1C(=O)N[C@H]1S(=O)(=O)c1ccccc1)OCc1ccccc1 [Example 21, (3R,4S)-3-(N-benezyloxycarbonyl-phenylalanyl)-amino-4-phenylsulfonyl-azetidin-2-one]",IC50,Cathepsin B,7390 nM
same,IC50,Cathepsin L,0.126 nM
"CC(=O)O[C@H]1[C@H](NC(=O)[C@H](Cc2ccccc2)NC(=O)OCc2ccccc2)C(=O)N1S(=O)(=O)O [Example 32, (3S,4S)-3-(N-benzyloxycarbonyl-L-phenylalanyl)-amino-4-acetoxy-azetidin-2-one-1-sulfonic acid]",IC50,Cathepsin B,368 nM
same,IC50,Cathepsin L,26 nM
"CC(=O)Oc1ccc(OCC(=O)N[C@@H](Cc2ccccc2)C(=O)N[C@@H]2C(=O)N[C@H]2OC(C)=O)cc1 [Example 15, (3S,4S)-3-[N-{2-(4-acetoxyphenoxy)-ethanoyl}-L-phenylalanyl]-amino-4-acetoxy-azetidin-2-one]",IC50,Cathepsin B,6330 nM
same,IC50,Cathepsin L,2070 nM
"O=C(N[C@@H](Cc1ccccc1)C(=O)N[C@@H]1C(=O)N[C@H]1Sc1ccncc1)OCc1ccccc1 [Example 34, (3S,4S)-3-(N-benzyloxycarbonyl-L-phenylalanyl)-amino-4-(pyrid-4-yl) thio-azetidin-2-one]",IC50,Cathepsin B,330 nM
same,IC50,Cathepsin L,16.8 nM
CC(=O)O[C@@H]1NC(=O)[C@H]1NC(=O)[C@H](Cc1ccccc1)NS(=O)(=O)c1ccc(C(C)(C)C)cc1 [Example 18],IC50,Cathepsin B,2120 nM
same,IC50,Cathepsin L,82 nM
"CC(=O)O[C@@H]1NC(=O)[C@H]1NC(=O)[C@H](Cc1ccccc1)NC(=O)CCc1cccnc1 [Example 14, (3S,4S)-3-{N-(3-pyrid-3-yl-propionoyl)-L-phenylalanyl}-amino-4-acetoxy-azetidin-2-one]",IC50,Cathepsin B,24500 nM
same,IC50,Cathepsin L,1290 nM
"O=C(N[C@@H](Cc1ccccc1)C(=O)N[C@@H]1CNC1=O)OCc1ccccc1 [Example 4, (3R)-3-(N-benzyloxycarbonyl-L-phenylalanyl)-amino-azetidin-2-one]",IC50,papain,57000 nM
